Measured values from patent US20230271965A1, “BICYCLIC HETEROARENES AND METHODS OF THEIR USE” (Kineta, Inc., priority 2020, published 2023).

Tests used:
[1] = tested on: PIKFYVE TDP-43 yeast strain; experiment: Propidium iodide viability assay, PIKFYVE TDP-43 yeast strain; assay type: cell-based; details: 0.23 μM, FIG. 6
Description: Generation of TDP-43 yeast model expressing human PIKfyve. Human PIKFYVE (“entry clone”) was cloned into pAG416GPDccdB (“destination vector”) according to standard Gateway cloning protocols (Invitrogen, Life Technologies). The resulting pAG416GPD-PIKFYVE plasmids were amplified in E. coli and plasmid identity confirmed by restriction digest and Sanger sequencing. Lithium acetate/polyethylene glycol-based transformation was used to introduce the above PIKFYVE plasmid into a BY4741 yeast strain auxotrophic for the ura3 gene and deleted for two transcription factors that regulate the xenobiotic efflux pumps, a major efflux pump, and FAB1, the yeast ortholog of PIKFYVE (MATa, snq2::KILeu2; pdr3::KIura3; pdr1::NATMX; fab1::G418^R, his3; leu2; ura3; met15; LYS2+) (FIG. 2).
Transformed yeast were plated on solid agar plates with complete synthetic media lacking uracil (CSM-ura) and containing 2% glucose. Individual colonies harboring the control or PIKFYVE TDP-43 plasmids were recovered. A plasmid containing wild-type TDP-43 under the transcriptional control of the GAL1 promoter and containing the hygromycin-resistance gene as a selectable marker was transformed into the fab1::G418^R pAG416GPD-PIKFYVE yeast strain (FIG. 1). Transformed yeast were plated on CSM-ura containing 2% glucose and […] after overnight recovery in media lacking antibiotic. Multiple independent isolates were further evaluated for cytotoxicity and TDP-43 expression levels.
Viability Assay. A control yeast strain with the wild-type yeast FAB1 gene and TDP-43 (“FAB1 TDP-43”, carries empty pAG416 plasmid), and the “PIKFYVE TDP-43” yeast strain, were assessed for toxicity using a propidium iodide viability assay. Both yeast strains were transferred from solid CSM-ura/2% glucose agar plates into 3 mL of liquid CSM-ura/2% glucose media for 6-8 hours at 30° C. with aeration. Yeast cultures were then diluted to an optical density at 600 nm wavelength (OD600) of 0.005 in 3 mL of CSM-ura/2% raffinose and grown overnight at 30° C. with aeration to an OD600 of 0.3-0.8. Log-phase overnight cultures were diluted to OD600 of 0.005 in CSM-ura containing either 2% raffinose or galactose and 150 μL dispensed into each well of a flat bottom 96-well plates. Compounds formulated in 100% dimethyl sulfoxide (DMSO) were serially diluted in DMSO and 1.5 μL diluted compound transferred to the 96-well plates using a multichannel pipet. Wells containing DMSO alone were also evaluated as controls for compound effects. Tested concentrations ranged from 15 μM to […]. Cultures were immediately mixed to ensure compound distribution and covered plates incubated at 30° C. for 24 hours in a stationary, humified incubator.
Upon the completion of incubation, cultures were assayed for viability using propidium iodide (PI) to stain for dead/dying cells. A working solution of PI was made where, for each plate, 1 μL of 10 mM PI was added to 10 mL of CSM-ura (raffinose or galactose). The final PI solution (50 μL/well) was dispensed into each well of a new round bottom 96-well plate. The overnight 96-well assay plate was then mixed with a multichannel pipet and 50 μL transferred to the PI-containing plate. This plate was then incubated for 30 minutes at 30° C. in the dark. A benchtop flow cytometer (Miltenyi MACSquant) was then used to assess red fluorescence ([…]), forward scatter, and side scatter (with following settings: gentle mix, high flow rate, fast measurement, 10,000 events). Intensity histograms were then gated for “PI-positive” or “PI-negative” using the raffinose and galactose cultures treated with DMSO as controls. The DMSO controls for raffinose or galactose-containing cultures were used to determine the window of increased cell death and this difference set to 100. All compounds were similarly gated and then compared to this maximal window to establish the percent reduction in PI-positive cells.

FAB1 TDP-43 yeast strain = experiment: Propidium iodide viability assay, control FAB1 TDP-43 yeast strain; assay type: cell-based; details: across a range of compound concentrations (only 0.23 μM is shown), FIG. 5
Description: Generation of TDP-43 yeast model expressing human PIKfyve. Human PIKFYVE (“entry clone”) was cloned into pAG416GPDccdB (“destination vector”) according to standard Gateway cloning protocols (Invitrogen, Life Technologies). The resulting pAG416GPD-PIKFYVE plasmids were amplified in E. coli and plasmid identity confirmed by restriction digest and Sanger sequencing. […]
Transformed yeast were plated on solid agar plates with complete synthetic media lacking uracil (CSM-ura) and containing 2% glucose. […] Multiple independent isolates were further evaluated for cytotoxicity and TDP-43 expression levels.
Viability Assay. A control yeast strain with the wild-type yeast FAB1 gene and TDP-43 (“FAB1 TDP-43”, carries empty pAG416 plasmid), and the “PIKFYVE TDP-43” yeast strain, were assessed for toxicity using a propidium iodide viability assay. […] Wells containing DMSO alone were also evaluated as controls for compound effects. […]
Upon the completion of incubation, cultures were assayed for viability using propidium iodide (PI) to stain for dead/dying cells. […] A benchtop flow cytometer (Miltenyi MACSquant) was then used to assess red fluorescence ([…]), forward scatter, and side scatter (with following settings: gentle mix, high flow rate, fast measurement, 10,000 events). […]

[2] = tested on: PIKFYVE TDP-43 yeast strain; experiment: Propidium iodide viability assay, PIKFYVE TDP-43 yeast strain; assay type: cell-based; details: concentrations ranging from 0.5 mM to less than 100 nM
[3] = target: T1, PIKfyve (PIKFYVE-NanoLuc fusion in HEK293 cells) (Homo sapiens, UniProt Q9Y2I7); experiment: NanoBRET TE Intracellular Kinase Assay, K-8 (Promega) cell-based assay; details: 2 hours, read-out: hPIKfyve BRET IC50
T1 construct: containing a full-length PIKfyve according to manufacturer's specifications; host or cells: HEK293
Description: NanoBRET™ TE Intracellular Kinase Assay, K-8 (Promega) Cell-Based Assay. Intracellular inhibition of PIKfyve was assayed using Promega's NanoBRET™ TE Intracellular Kinase Assay, K-8 according to manufacturer's instructions. A dilution series of test compounds was added for 2 hours to HEK293 cells transfected for a minimum of 20 hours with PIKFYVE-NanoLuc® Fusion Vector (Promega) containing a full-length PIKfyve according to manufacturer's specifications in a 96-well plate. Kinase activity was detected by addition of a NanoBRET™ tracer reagent, which was a proprietary PIKfyve inhibitor appended to a fluorescent probe (BRET, bioluminescence resonance energy transfer). Test compounds were tested at concentrations of 10, 3, 1, 0.3, 0.1, 0.03, 0.01, 0.003 μM. BRET signals were measured by a GloMax® Discover Multimode Microplate Reader (Promega) using 0.3 sec/well integration time, 450BP donor filter and 600LP acceptor filters. Active test compounds that bound PIKfyve and displaced the tracer reduced BRET signal. IC50 values were then calculated by fitting the data to the normalized BRET ratio.

[4] = target: T2, full-length human PIKFYVE (GST-PIKFYVE) (Homo sapiens, UniProt Q9Y2I7, L932S/Q1183K/Q995L/S1033A/S696N/T998S); experiment: PIKfyve biochemical assay (ADP-Glo Kinase assay, Carna Biosciences); details: ADP-Glo, full-length human PIKFYVE; read-out: hPIKfyve IC50
T2 construct: A full-length human PIKFYVE [1-2098 (end) amino acids; purchased Carna Biosciences; host or cells: baculovirus expression system
Description: PIKfyve Biochemical Assay. The biochemical PIKFyve inhibition assays were run by Carna Biosciences according to proprietary methodology based on the Promega ADP-Glo™ Kinase assay. […] GST-PIKFYVE was purified by using glutathione sepharose chromatography and used in an ADP-Glo™ Kinase assay (Promega). Reactions were set up by adding the test compound solution, substrate solution, ATP solution and kinase solution, each at 4×final concentrations. Reactions were prepared with assay buffer (50 mM MOPS, 1 mM DTT, pH7.2), mixed, and incubated in black 384 well polystyrene plates for 1 hour at room temperature. ADP-Glo™ reagent was then added for 40 minutes, followed by kinase detection reagent for an additional 40 minutes. The kinase activity was evaluated by detecting relative light units on a luminescence plate reader. Samples were run in duplicate from 10 μM to 3 nM. […] IC50 values were calculated from concentration vs % inhibition curves by fitting to a four-parameter logistic curve.
The biochemical PIKFyve inhibition assays were run by Carna Biosciences according to proprietary methodology based on the Promega ADP-Glo™ Kinase assay. […] GST-PIKFYVE was purified by using glutathione sepharose chromatography and used in an ADP-Glo™ Kinase assay (Promega).
Reactions were set up by adding the test compound solution, substrate solution, ATP solution and kinase solution, each at 4×final concentrations. Reactions were prepared with assay buffer (50 mM MOPS, 1 mM DTT, pH7.2), mixed, and incubated in black 384 well polystyrene plates for 1 hour at room temperature. ADP-Glo™ reagent was then added for 40 minutes, followed by kinase detection reagent for an additional 40 minutes. The kinase activity was evaluated by detecting relative light units on a luminescence plate reader. Samples were run in duplicate from 10 uM to 3 nM. […] IC50 values were calculated from concentration vs % inhibition curves by fitting to a four-parameter logistic curve.

T2 sequence (Q9Y2I7 whole entry S696N/L932S/Q995L/T998S/S1033A/Q1183K): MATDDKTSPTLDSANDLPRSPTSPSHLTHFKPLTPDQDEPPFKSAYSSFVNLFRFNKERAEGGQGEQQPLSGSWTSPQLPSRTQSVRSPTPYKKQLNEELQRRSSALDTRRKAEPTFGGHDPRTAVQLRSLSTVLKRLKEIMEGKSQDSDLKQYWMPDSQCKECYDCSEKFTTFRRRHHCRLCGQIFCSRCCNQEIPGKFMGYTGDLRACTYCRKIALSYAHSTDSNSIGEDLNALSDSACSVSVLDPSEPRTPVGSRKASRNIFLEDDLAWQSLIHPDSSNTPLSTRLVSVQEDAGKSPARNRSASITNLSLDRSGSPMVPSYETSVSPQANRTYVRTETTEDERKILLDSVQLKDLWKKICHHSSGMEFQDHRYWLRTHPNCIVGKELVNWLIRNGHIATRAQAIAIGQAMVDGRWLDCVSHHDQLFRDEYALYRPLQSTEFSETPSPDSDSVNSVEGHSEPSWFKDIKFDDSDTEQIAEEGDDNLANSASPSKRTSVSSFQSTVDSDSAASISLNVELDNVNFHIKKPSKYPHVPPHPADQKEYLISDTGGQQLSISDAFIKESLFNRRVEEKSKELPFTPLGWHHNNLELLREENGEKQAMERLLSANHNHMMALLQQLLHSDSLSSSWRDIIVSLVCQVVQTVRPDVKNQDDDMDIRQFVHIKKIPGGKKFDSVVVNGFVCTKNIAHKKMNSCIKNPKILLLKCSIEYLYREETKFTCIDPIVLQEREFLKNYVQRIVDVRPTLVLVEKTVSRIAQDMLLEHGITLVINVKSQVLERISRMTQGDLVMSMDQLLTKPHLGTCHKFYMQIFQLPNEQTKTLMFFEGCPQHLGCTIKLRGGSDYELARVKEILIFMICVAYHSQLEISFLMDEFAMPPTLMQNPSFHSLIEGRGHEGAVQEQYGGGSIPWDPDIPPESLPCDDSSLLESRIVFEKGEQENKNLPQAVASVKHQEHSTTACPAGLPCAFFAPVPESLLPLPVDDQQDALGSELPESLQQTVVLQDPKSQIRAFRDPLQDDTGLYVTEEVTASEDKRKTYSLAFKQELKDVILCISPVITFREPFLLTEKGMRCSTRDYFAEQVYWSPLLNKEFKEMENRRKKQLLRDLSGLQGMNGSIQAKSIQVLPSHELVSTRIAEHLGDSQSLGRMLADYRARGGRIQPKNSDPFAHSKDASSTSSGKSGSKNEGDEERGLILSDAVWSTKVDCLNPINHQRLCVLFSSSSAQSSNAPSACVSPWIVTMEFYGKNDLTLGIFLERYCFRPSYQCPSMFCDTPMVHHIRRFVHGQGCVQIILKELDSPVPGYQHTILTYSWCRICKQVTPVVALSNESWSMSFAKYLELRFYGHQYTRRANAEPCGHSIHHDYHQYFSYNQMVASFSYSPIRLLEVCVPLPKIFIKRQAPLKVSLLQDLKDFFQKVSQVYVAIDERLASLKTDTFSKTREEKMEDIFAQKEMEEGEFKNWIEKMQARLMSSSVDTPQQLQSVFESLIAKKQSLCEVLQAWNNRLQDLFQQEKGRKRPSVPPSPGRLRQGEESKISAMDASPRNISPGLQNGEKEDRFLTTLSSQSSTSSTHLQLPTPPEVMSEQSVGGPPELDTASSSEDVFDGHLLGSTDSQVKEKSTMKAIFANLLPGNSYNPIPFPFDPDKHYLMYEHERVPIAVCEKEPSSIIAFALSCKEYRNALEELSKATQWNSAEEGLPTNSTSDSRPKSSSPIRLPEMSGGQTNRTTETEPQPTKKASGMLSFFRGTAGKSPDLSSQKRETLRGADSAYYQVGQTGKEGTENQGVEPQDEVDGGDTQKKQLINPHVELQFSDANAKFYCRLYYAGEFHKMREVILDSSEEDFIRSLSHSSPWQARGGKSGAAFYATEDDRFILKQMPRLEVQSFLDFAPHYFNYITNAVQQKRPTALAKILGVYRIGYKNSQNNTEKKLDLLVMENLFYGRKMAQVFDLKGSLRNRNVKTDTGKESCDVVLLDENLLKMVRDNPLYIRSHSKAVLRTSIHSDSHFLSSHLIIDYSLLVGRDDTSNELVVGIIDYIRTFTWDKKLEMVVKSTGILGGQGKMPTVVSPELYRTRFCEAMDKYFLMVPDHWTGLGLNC
T1 sequence (Q9Y2I7 whole entry, the tested form may be a part): as the sequence (Q9Y2I7 whole entry S696N/L932S/Q995L/T998S/S1033A/Q1183K) above, with N696S, S932L, L995Q, S998T, A1033S, K1183Q counted along it

IC50 [3] [nM] | IC50 [4] [nM] | Compound | also measured
100 to 1000 | – | c1ccc(N2CCc3c(OCc4cccnn4)nc(N4CCOCC4)nc32)cc1 [Compound 5] | –
100 to 1000 | – | N#Cc1ccc(N2CCc3c(OCc4cccnc4)nc(N4CCOCC4)nc32)cc1 [Compound 21, 4-(2-morpholino-4-(pyridin-3-ylmethoxy)-5H-pyrrolo[2,3-d]pyrimidin-7(6H)-yl)benzonitrile] | –
1000 to 10000 | 10 to 100 | c1cncc(Oc2nc(N3CCOCC3)nc3c2CCN3c2cccnc2)c1 [Compound 24, 4-(7-(pyridin-3-yl)-4-(pyridin-3-yloxy)-6,7-dihydro-5H-pyrrolo[2,3-d]pyrimidin-2-yl)morpholine] | –

Continued, molecule first:

Compound | IC50 [3] [nM] | IC50 [4] [nM] | also measured
Cc1cccc(/C=N/Nc2cc(N3CCOCC3)n3nc(-c4ccncc4)cc3n2)c1 [APY0201] | – | – | population of propidium iodide-positive dead cells in PIKFYVE TDP-43 [1]: reduced the population of propidium iodide-positive dead cells; increase in viable cells in FAB1 TDP-43 (FAB1 TDP-43 yeast strain): no increase in viable cells; viability in PIKFYVE TDP-43 model [2]: increased viability
c1cncc(N2CCc3c(OCCC4CCCO4)nc(N4CCOCC4)nc32)c1 (centres unmarked) [Compound 10] | 100 to 1000 | < 10 | –
COc1nc(N2CCOCC2)nc2c1CCN2c1ccccc1 [Compound 16, 4-(4-methoxy-7-phenyl-6,7-dihydro-5H-pyrrolo[2,3-d]pyrimidin-2-yl)morpholine] | 100 to 1000 | – | –
c1ccc(N2CCc3c(Oc4cccnc4)nc(N4CCOCC4)nc32)cc1 [Compound 22, 4-(7-phenyl-4-(pyridin-3-yloxy)-6,7-dihydro-5H-pyrrolo[2,3-d]pyrimidin-2-yl)morpholine] | 100 to 1000 | < 10 | –
OCC(O)COc1nc(N2CCOCC2)nc2c1CCN2c1ccccc1 (centres unmarked) [Compound 25, 3-((2-morpholino-7-phenyl-6,7-dihydro-5H-pyrrolo[2,3-d]pyrimidin-4-yl)oxy)propane-1,2-diol] | 100 to 1000 | – | –
c1ccc(N2CCc3c(-c4ccncc4)nc(N4CCOCC4)nc32)cc1 [Compound 41, 4-(7-phenyl-4-(pyridin-4-yl)-6,7-dihydro-5H-pyrrolo[2,3-d]pyrimidin-2-yl)morpholine] | 10 to 100 | < 10 | –
CN1CCC(COc2nc(N3CCOCC3)nc3c2CCN3c2cccnc2)CC1 [Compound 111] | 1000 to 10000 | 100 to 1000 | –
